Measurements from US20250000819A1, “Anti-hypoxic/anoxic injury use of a magnolol and/or honokiol aromatic ring amino-substituted derivative, and a pharmaceutical composition” (BEIJING HONGHUI MEDITECH CO., LTD., priority 2021, published 2025).

Key:
Type in all cases: in vivo, rat
[1] = system: SD male rats, hypoxia (the oxygen content was 11%) treatment; assay: Blood gas analysis of femoral artery blood in hypoxia-treated rats
Description: 2. Animal model: SPF-grade SD male rats, 220-240 g of the weight, and hypoxia (the oxygen content was 11%) treatment. 3. Experimental grouping: a hypoxia treatment control group, there were 4 rats in each group; and a hypoxia treatment administration group, there were 4 rats in each group. 4. Administration mode: before the hypoxia treatment, a single intravenous injection was administered to each rat in the hypoxia treatment administration group. 5. […] 2. Animal model: SPF-grade SD male rats, 220-240 g of the weight, and hypoxia (the oxygen content was 11%) treatment. 3. Experimental grouping: a hypoxia treatment control group, there were 4 rats in each group; and a hypoxia treatment administration group, there were 4 rats in each group. 4. Administration mode: before the hypoxia treatment, a single intravenous injection was administered to each rat in the hypoxia treatment administration group. 5. […] 2. Animal model: SPF-grade SD male rats, 220-240 g of the weight, and hypoxia (the oxygen content was 11%) treatment. 3. Experimental grouping: a hypoxia treatment control group, there were 4 rats in each group; and a hypoxia treatment administration group, there were 4 rats in each group. 4. Administration mode: single gavage administration of each rat in the hypoxic treatment group prior to hypoxic treatment. 5. […] 2. Animal model: SPF-grade SD male rats, 220-240 g of the weight, and hypoxia (the oxygen content was 11%) treatment. 3. Experimental grouping: a hypoxia treatment control group, there were 4 rats in each group; and a hypoxia treatment administration group, there were 4 rats in each group. 4. Administration mode: before the hypoxia treatment, a single intravenous injection was administered to each rat in the hypoxia treatment administration group. 5. […] 2. Animal model: SPF-grade SD male rats, 220-240 g of the weight, and hypoxia (the oxygen content was 11%) treatment. 3. Experimental grouping: a hypoxia treatment control group, there were 4 rats in each group; and a hypoxia treatment administration group, there were 4 rats in each group. 4. Administration mode: before the hypoxia treatment, a single intravenous injection was administered to each rat in the hypoxia treatment administration group. 5. […]

[2] = system: SD male rats, hypoxia (the oxygen content was 11%) treatment; assay: Respiratory rate evaluated during blood collection in hypoxia-treated rats; conditions: p<0.05
Description: 2. Animal model: SPF-grade SD male rats, 220-240 g of the weight, and hypoxia (the oxygen content was 11%) treatment. 4. Administration mode: before the hypoxia treatment, a single intravenous injection was administered to each rat in the hypoxia treatment administration group. 6. Respiratory rate: the rat respiratory rate was evaluated during blood collection. 2. Animal model: SPF-grade SD male rats, 220-240 g of the weight, and hypoxia (the oxygen content was 11%) treatment. 4. Administration mode: before the hypoxia treatment, a single intravenous injection was administered to each rat in the hypoxia treatment administration group. 6. Respiratory rate: the rat respiratory rate was evaluated during blood collection. 2. Animal model: SPF-grade SD male rats, 220-240 g of the weight, and hypoxia (the oxygen content was 11%) treatment. 4. Administration mode: single gavage administration of each rat in the hypoxic treatment group prior to hypoxic treatment. 6. Respiratory rate: the rat respiratory rate was evaluated during blood collection. 2. Animal model: SPF-grade SD male rats, 220-240 g of the weight, and hypoxia (the oxygen content was 11%) treatment. 4. Administration mode: before the hypoxia treatment, a single intravenous injection was administered to each rat in the hypoxia treatment administration group. 2. Animal model: SPF-grade SD male rats, 220-240 g of the weight, and hypoxia (the oxygen content was 11%) treatment. 4. Administration mode: before the hypoxia treatment, a single intravenous injection was administered to each rat in the hypoxia treatment administration group. 6. Respiratory rate: the rat respiratory rate was evaluated during blood collection.

[3] = system: lung tissues of SD rats, hypoxia (the oxygen content was 11%) treatment; assay: H&E staining / pathological analysis of lung tissue paraffin sections after hypoxia treatment; conditions: 1 mg/kg single intravenous injection, after 24 h of hypoxia treatment
Description: 2. Animal model: SPF-grade SD male rats, 220-240 g of the weight, and hypoxia (the oxygen content was 11%) treatment. 4. Administration mode: before the hypoxia treatment, a single intravenous injection was administered to each rat in the hypoxia treatment administration group. 7. Hematoxylin-eosin (H&E) staining: Lung tissues of the hypoxia treatment (24 h) control group and the hypoxia treatment (24 h) administration group (dose: 1 mg/kg) were taken for paraffin section preparation, staining, and case analysis. 1) Paraffin sections were dewaxed to water: the sections were sequentially placed in xylene I for 20 min, xylene II for 20 min, anhydrous ethanol I for 5 min, anhydrous ethanol II for 5 min, and 75% alcohol for 5 min, and finally washed with tap water. 2) Hematoxylin staining: the sections were placed in hematoxylin staining solution and stained for 3-5 min, then washed with the tap water, and differentiated with differentiation solution, then washed with the tap water. It returned to blue by blue returning solution, and finally it was washed with running water. 3) Eosin staining: the sections were sequentially dehydrated with 85% and 95% of gradient alcohol for 5 min respectively, and placed in eosin staining solution and stained for 5 min. […]

`C=CCc1cc(N)c(O)c(-c2ccc(O)c(CC=C)c2)c1` [Compound 1, 3′, 5-diallyl-3-amino-[1,1′-biphenyl]-2,4′-diol] was tested. Which “blood oxygen partial pressure (PO2) vs control group” value ([1]; 0.58 mg/kg single intravenous injection before hypoxia, after 24 h of hypoxia treatment, p=0.0012) did it give?
The value was “significantly higher than those of the control group”.

What about the “blood oxygen saturation (SO2) vs control group” value ([1]; 0.58 mg/kg single intravenous injection before hypoxia, after 24 h of hypoxia treatment, p=0.019) of the same compound?
Its value is “significantly higher than those of the control group”.

And the “respiratory rate (RR) vs control group” value ([2]; 0.58 mg/kg single intravenous injection, after 24 h of hypoxia treatment)?
The value was “lower than that of the control group, and the different was significant”.

With `C=CCc1cc(NC(=O)[C@@H](N)CCCCN)c(O)c(-c2ccc(O)c(CC=C)c2)c1.Cl.Cl` [Compound 2, (S)-2,6-diamino-N-(3′,5-diallyl-2,4′-dihydroxy-[1,1′-biphenyl]-3-yl) hexanamide dihydrochloride] as the compound, how does the “blood oxygen saturation (SO2) vs control group” value ([1]; 0.25 mg/kg single intravenous injection, after 1 h of hypoxia treatment, p=0.023) read?
The value was “higher than that of the control group, and the difference was significant”.

What about the “blood oxygen partial pressure (PO2) vs control group” value ([1]; 0.25 mg/kg single intravenous injection, after 1 h of hypoxia treatment, p=0.059) of the same compound?
Its value is “higher than that of the control group, but the difference was not significant”.

What about the “blood oxygen saturation (SO2) vs control group” value ([1]; 0.25 mg/kg single intravenous injection, after 6 h of hypoxia treatment, p=0.015) of the same compound?
Its value is “higher than those of the control group, and the difference was significant”.

What about the “blood oxygen partial pressure (PO2) vs control group” value ([1]; 0.25 mg/kg single intravenous injection, after 6 h of hypoxia treatment, p=0.018) of the same compound?
The value was “higher than those of the control group, and the difference was significant”.

What about the “blood oxygen saturation (SO2) vs control group” value ([1]; 1 mg/kg single intravenous injection, after 6 h of hypoxia treatment, p=0.0012) of the same compound?
Its value is “higher than that of the control group, and the difference was significant”.

What about the “blood oxygen partial pressure (PO2) vs control group” value ([1]; 1 mg/kg single intravenous injection, after 6 h of hypoxia treatment, p=0.003) of the same compound?
Its value is “higher than that of the control group, and the difference was significant”.

What about the “blood oxygen saturation (SO2) vs control group” value ([1]; 1 mg/kg single intravenous injection, after 24 h of hypoxia treatment, p=0.001) of the same compound?
Its value is “higher than those of the control group, and the difference was significant”.

And the “blood oxygen partial pressure (PO2) vs control group” value ([1]; 1 mg/kg single intravenous injection, after 24 h of hypoxia treatment, p=0.0012)?
The value was “higher than those of the control group, and the difference was significant”.

And the “blood oxygen saturation (SO2) vs control group” value ([1]; 40 mg/kg single gavage (intragastric) administration, after 24 h of hypoxia treatment, p=0.016)?
Its value is “higher than those of the control group, and the difference was significant”.

And the “blood oxygen partial pressure (PO2) vs control group” value ([1]; 40 mg/kg single gavage (intragastric) administration, after 24 h of hypoxia treatment, p=0.036)?
Its value is “higher than those of the control group, and the difference was significant”.

What about the “lung tissue injuries (H&E pathological analysis) vs control group” value [3] of the same compound?
The value was “able to alleviate the tissue injuries caused by hypoxia (anoxia)”.

What about the “respiratory rate (RR) vs control group” value ([2]; 1 mg/kg single intravenous injection, after 6 h of hypoxia treatment) of the same compound?
The value was “lower than that of the control group, and the difference was significant”.

What about the “respiratory rate (RR) vs control group” value ([2]; 1 mg/kg single intravenous injection, after 24 h of hypoxia treatment) of the same compound?
The value was “lower than that of the control group, and the difference was significant”.

And the “respiratory rate (RR) vs control group” value ([2]; 40 mg/kg single gavage (intragastric) administration, after 24 h of hypoxia treatment)?
Its value is “lower than that of the control group, and the difference was significant”.

For `C=CCc1cc(NC(=O)[C@@H](N)CCSC)c(O)c(-c2ccc(O)c(CC=C)c2)c1.Cl` [Compound 3, (S)-2-amino-N-(3′,5-diallyl-2,4′-dihydroxy-[1,1′-biphenyl]-3-yl)-4-(methylthio) butanamide hydrochloride], which “blood oxygen saturation (SO2) vs control group” value ([1]; 0.93 mg/kg single intravenous injection, after 24 h of hypoxia treatment, p=0.06) is on record?
The value was “higher than that of the control group”.

What about the “respiratory rate (RR) vs control group” value ([2]; 0.93 mg/kg single intravenous injection, after 24 h of hypoxia treatment) of the same compound?
Its value is “lower than that of the control group, and the difference was significant”.

With `C=CCc1cc(NC(C)=O)c(O)c(-c2ccc(O)c(CC=C)c2)c1` [Compound 4, N-(3′,5-diallyl-2,4′-dihydroxy-[1,1′-biphenyl]-3-yl) acetamide] as the compound, how does the “blood oxygen saturation (SO2) vs control group” value ([1]; 0.67 mg/kg single intravenous injection, after 24 h of hypoxia treatment, p=0.0023) read?
Its value is “higher than those of the control group”.

What about the “blood oxygen partial pressure (PO2) vs control group” value ([1]; 0.67 mg/kg single intravenous injection, after 24 h of hypoxia treatment, p=0.023) of the same compound?
Its value is “higher than those of the control group”.

What about the “respiratory rate (RR) vs control group” value ([2]; 0.67 mg/kg single intravenous injection, after 24 h of hypoxia treatment) of the same compound?
The value was “lower than that of the control group, and the difference was significant”.
